Results reported in ChEMBL document CHEMBL4507287, “Data for DCP probe MRL-650” (2021).

Legend:
[1] = tested on: Tyrosine-protein kinase ABL1 (Homo sapiens), P00519 [Y253F]; conditions: Compound concentration 1000.0 nM
[2] = target: ALK tyrosine kinase receptor (Homo sapiens) (UniProt Q9UM73); conditions: Compound concentration 1000.0 nM
[3] = tested on: ALK tyrosine kinase receptor (Homo sapiens), Q9UM73 [C1156Y]; conditions: Compound concentration 1000.0 nM
[4] = target: Bone morphogenetic protein receptor type-2 (Homo sapiens) (UniProt Q13873); conditions: Compound concentration 1000.0 nM
[5] = target: Calcium/calmodulin-dependent protein kinase type 1D (Homo sapiens) (UniProt Q8IU85); conditions: Compound concentration 1000.0 nM
[6] = target: Cyclin-dependent kinase 7 (Homo sapiens) (UniProt P50613); conditions: Compound concentration 1000.0 nM
[7] = target: Cyclin-dependent kinase-like 1 (Homo sapiens) (UniProt Q00532); conditions: Compound concentration 1000.0 nM
[8] = target: Dual specificity protein kinase CLK2 (Homo sapiens) (UniProt P49760); conditions: Compound concentration 1000.0 nM
[9] = target: Death-associated protein kinase 2 (Homo sapiens) (UniProt Q9UIK4); conditions: Compound concentration 1000.0 nM
[10] = target: Dual specificity tyrosine-phosphorylation-regulated kinase 2 (Homo sapiens) (UniProt Q92630); conditions: Compound concentration 1000.0 nM
[11] = tested on: Epidermal growth factor receptor (Homo sapiens), P00533 [G719C]; conditions: Compound concentration 1000.0 nM
[12] = tested on: Epidermal growth factor receptor (Homo sapiens), P00533 [L858R]; conditions: Compound concentration 1000.0 nM
[13] = target: Ephrin type-B receptor 2 (Homo sapiens) (UniProt P29323); conditions: Compound concentration 1000.0 nM
[14] = tested on: Receptor-type tyrosine-protein kinase FLT3 (Homo sapiens), P36888 [K663Q]; conditions: Compound concentration 1000.0 nM
[15] = target: Homeodomain-interacting protein kinase 1 (Homo sapiens) (UniProt Q86Z02); conditions: Compound concentration 1000.0 nM
[16] = target: Homeodomain-interacting protein kinase 3 (Homo sapiens) (UniProt Q9H422); conditions: Compound concentration 1000.0 nM
[17] = target: Inhibitor of nuclear factor kappa-B kinase subunit beta (Homo sapiens) (UniProt O14920); conditions: Compound concentration 1000.0 nM
[18] = target: Inhibitor of nuclear factor kappa-B kinase subunit epsilon (Homo sapiens) (UniProt Q14164); conditions: Compound concentration 1000.0 nM
[19] = tested on: Mast/stem cell growth factor receptor Kit (Homo sapiens), P10721 [D816H]; conditions: Compound concentration 1000.0 nM
[20] = target: Leukocyte tyrosine kinase receptor (Homo sapiens) (UniProt P29376); conditions: Compound concentration 1000.0 nM
[21] = target: Mitogen-activated protein kinase kinase kinase 4 (Homo sapiens) (UniProt Q9Y6R4); conditions: Compound concentration 1000.0 nM
[22] = target: MAP/microtubule affinity-regulating kinase 4 (Homo sapiens) (UniProt Q96L34); conditions: Compound concentration 1000.0 nM
Sequence of MAP/microtubule affinity-regulating kinase 4 (Homo sapiens) (Q96L34 whole entry): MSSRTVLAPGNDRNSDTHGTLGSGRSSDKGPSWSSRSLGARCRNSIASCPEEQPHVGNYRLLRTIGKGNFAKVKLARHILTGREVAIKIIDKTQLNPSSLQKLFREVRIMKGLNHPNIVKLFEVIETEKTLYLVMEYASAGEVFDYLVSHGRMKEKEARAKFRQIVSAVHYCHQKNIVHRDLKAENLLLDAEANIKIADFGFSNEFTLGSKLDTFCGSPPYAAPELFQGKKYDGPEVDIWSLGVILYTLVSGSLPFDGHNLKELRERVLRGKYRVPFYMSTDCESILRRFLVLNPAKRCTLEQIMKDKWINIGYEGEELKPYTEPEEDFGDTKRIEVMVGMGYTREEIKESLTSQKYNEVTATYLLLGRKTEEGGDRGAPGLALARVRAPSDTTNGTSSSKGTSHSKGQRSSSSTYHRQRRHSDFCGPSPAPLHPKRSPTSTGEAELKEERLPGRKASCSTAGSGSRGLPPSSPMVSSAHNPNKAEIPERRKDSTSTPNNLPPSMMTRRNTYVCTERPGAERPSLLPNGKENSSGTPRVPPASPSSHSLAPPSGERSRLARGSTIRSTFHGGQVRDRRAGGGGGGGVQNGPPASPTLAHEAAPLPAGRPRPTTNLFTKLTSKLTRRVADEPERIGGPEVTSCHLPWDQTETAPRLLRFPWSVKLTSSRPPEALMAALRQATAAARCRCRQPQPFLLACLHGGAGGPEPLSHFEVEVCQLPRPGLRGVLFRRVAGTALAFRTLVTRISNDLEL

[23] = target: Dual specificity mitogen-activated protein kinase kinase 6 (Homo sapiens) (UniProt P52564); conditions: Compound concentration 1000.0 nM
[24] = target: Mitogen-activated protein kinase kinase kinase 10 (Homo sapiens) (UniProt Q02779); conditions: Compound concentration 1000.0 nM
[25] = target: Serine/threonine-protein kinase MRCK beta (Homo sapiens) (UniProt Q9Y5S2); conditions: Compound concentration 1000.0 nM
Sequence of Serine/threonine-protein kinase MRCK beta (Homo sapiens) (Q9Y5S2 whole entry): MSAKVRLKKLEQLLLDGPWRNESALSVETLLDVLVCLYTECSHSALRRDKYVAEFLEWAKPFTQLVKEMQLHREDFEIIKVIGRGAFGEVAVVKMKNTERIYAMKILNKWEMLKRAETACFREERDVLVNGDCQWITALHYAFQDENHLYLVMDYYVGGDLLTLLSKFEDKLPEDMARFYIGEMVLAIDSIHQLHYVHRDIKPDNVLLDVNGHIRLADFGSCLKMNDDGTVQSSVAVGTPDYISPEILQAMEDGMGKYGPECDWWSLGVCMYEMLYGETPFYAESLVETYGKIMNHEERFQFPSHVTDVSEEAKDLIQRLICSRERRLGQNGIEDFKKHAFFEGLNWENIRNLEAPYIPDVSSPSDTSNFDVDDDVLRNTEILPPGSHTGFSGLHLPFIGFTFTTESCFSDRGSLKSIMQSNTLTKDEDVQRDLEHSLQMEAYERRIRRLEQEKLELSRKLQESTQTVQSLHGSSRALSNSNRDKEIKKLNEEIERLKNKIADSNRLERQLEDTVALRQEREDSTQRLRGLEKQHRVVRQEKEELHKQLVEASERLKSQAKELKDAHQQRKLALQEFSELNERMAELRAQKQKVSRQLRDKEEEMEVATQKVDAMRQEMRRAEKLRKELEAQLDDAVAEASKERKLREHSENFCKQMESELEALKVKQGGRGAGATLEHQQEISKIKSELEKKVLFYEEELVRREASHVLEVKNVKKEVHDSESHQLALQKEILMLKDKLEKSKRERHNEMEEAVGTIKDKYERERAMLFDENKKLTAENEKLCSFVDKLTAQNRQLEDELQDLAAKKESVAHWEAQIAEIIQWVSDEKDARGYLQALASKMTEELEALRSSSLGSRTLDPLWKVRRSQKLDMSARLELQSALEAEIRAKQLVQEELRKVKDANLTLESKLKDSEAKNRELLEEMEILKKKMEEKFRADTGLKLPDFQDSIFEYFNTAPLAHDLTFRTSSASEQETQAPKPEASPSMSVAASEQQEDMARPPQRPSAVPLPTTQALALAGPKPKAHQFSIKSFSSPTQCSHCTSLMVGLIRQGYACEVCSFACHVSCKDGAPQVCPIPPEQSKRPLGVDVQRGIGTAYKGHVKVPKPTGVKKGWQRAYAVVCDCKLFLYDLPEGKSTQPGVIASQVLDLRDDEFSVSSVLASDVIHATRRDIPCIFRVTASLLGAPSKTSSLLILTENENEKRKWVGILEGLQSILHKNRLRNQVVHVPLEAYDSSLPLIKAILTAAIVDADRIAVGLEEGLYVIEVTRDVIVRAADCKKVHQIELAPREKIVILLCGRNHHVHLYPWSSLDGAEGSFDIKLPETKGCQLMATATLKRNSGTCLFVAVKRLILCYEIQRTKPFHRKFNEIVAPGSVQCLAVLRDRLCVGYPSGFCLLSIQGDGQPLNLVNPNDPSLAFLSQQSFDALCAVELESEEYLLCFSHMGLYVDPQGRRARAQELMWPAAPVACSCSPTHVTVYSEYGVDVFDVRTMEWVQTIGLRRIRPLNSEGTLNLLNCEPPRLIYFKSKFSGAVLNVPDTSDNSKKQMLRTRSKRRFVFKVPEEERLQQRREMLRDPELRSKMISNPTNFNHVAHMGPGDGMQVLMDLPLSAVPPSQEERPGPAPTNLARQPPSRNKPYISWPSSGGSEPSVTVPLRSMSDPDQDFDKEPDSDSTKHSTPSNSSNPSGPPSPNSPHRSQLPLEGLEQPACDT

[26] = target: Serine/threonine-protein kinase mTOR (Homo sapiens) (UniProt P42345); conditions: Compound concentration 1000.0 nM
[27] = target: Serine/threonine-protein kinase 38 (Homo sapiens) (UniProt Q15208); conditions: Compound concentration 1000.0 nM
[28] = target: Mitogen-activated protein kinase 12 (Homo sapiens) (UniProt P53778); conditions: Compound concentration 1000.0 nM
[29] = target: Serine/threonine-protein kinase PAK 3 (Homo sapiens) (UniProt O75914); conditions: Compound concentration 1000.0 nM
[30] = target: Serine/threonine-protein kinase PAK 4 (Homo sapiens) (UniProt O96013); conditions: Compound concentration 1000.0 nM
[31] = target: Platelet-derived growth factor receptor beta (Homo sapiens) (UniProt P09619); conditions: Compound concentration 1000.0 nM
[32] = target: Phosphatidylinositol 4-phosphate 5-kinase type-1 gamma (Homo sapiens) (UniProt O60331); conditions: Compound concentration 1000.0 nM
Sequence of Phosphatidylinositol 4-phosphate 5-kinase type-1 gamma (Homo sapiens) (O60331 whole entry): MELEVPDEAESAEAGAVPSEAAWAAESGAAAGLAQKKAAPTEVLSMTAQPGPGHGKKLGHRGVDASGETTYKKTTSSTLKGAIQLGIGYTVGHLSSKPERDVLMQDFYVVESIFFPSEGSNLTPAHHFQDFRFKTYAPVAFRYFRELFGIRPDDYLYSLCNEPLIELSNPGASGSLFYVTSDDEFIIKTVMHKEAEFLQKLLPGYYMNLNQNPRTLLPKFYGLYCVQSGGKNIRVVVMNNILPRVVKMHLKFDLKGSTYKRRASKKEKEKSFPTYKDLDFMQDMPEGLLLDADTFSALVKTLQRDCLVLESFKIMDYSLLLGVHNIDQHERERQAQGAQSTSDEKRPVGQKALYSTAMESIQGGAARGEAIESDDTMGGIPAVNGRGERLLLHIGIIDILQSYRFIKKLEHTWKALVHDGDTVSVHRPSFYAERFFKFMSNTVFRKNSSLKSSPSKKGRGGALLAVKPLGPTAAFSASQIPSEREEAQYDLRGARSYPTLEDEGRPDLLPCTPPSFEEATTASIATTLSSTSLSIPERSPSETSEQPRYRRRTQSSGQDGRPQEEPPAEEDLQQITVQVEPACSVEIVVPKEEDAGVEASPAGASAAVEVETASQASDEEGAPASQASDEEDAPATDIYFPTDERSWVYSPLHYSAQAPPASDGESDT

[33] = target: cAMP-dependent protein kinase catalytic subunit beta (Homo sapiens) (UniProt P22694); conditions: Compound concentration 1000.0 nM
[34] = target: Protein kinase C eta type (Homo sapiens) (UniProt P24723); conditions: Compound concentration 1000.0 nM
[35] = target: Serine/threonine-protein kinase D2 (Homo sapiens) (UniProt Q9BZL6); conditions: Compound concentration 1000.0 nM
[36] = tested on: Proto-oncogene tyrosine-protein kinase receptor Ret (Homo sapiens), P07949 [V804L]; conditions: Compound concentration 1000.0 nM
[37] = target: Serine/threonine-protein kinase RIO2 (Homo sapiens) (UniProt Q9BVS4); conditions: Compound concentration 1000.0 nM
[38] = target: Receptor-interacting serine/threonine-protein kinase 4 (Homo sapiens) (UniProt P57078); conditions: Compound concentration 1000.0 nM
[39] = target: Ribosomal protein S6 kinase alpha-6 (Homo sapiens) (UniProt Q9UK32); conditions: Compound concentration 1000.0 nM
[40] = target: Uncharacterized serine/threonine-protein kinase SBK3 (Homo sapiens) (UniProt P0C264); conditions: Compound concentration 1000.0 nM
[41] = target: Serine/threonine-protein kinase TAO3 (Homo sapiens) (UniProt Q9H2K8); conditions: Compound concentration 1000.0 nM
[42] = target: Serine/threonine-protein kinase tousled-like 2 (Homo sapiens) (UniProt Q86UE8); conditions: Compound concentration 1000.0 nM
[43] = target: D(1A) dopamine receptor (Homo sapiens) (UniProt P21728); conditions: Compound concentration 10.0 uM
[44] = target: Histamine H2 receptor (Homo sapiens) (UniProt P25021); conditions: Compound concentration 10.0 uM
Sequence of Histamine H2 receptor (Homo sapiens) (P25021 whole entry): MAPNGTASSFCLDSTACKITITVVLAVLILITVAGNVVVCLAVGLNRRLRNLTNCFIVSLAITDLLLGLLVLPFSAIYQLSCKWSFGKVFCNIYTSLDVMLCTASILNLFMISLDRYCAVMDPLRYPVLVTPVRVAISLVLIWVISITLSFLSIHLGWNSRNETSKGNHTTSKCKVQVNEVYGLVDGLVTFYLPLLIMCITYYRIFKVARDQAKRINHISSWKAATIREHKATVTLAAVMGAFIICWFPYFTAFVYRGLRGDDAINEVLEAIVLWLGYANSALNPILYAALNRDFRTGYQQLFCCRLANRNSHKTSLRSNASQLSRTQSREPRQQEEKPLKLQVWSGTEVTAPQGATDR

[45] = organism: Rattus norvegicus; conditions: Compound concentration 10.0 uM

Sequence of ALK tyrosine kinase receptor (Homo sapiens), Q9UM73 [C1156Y] (Q9UM73 whole entry C1156Y, looked up): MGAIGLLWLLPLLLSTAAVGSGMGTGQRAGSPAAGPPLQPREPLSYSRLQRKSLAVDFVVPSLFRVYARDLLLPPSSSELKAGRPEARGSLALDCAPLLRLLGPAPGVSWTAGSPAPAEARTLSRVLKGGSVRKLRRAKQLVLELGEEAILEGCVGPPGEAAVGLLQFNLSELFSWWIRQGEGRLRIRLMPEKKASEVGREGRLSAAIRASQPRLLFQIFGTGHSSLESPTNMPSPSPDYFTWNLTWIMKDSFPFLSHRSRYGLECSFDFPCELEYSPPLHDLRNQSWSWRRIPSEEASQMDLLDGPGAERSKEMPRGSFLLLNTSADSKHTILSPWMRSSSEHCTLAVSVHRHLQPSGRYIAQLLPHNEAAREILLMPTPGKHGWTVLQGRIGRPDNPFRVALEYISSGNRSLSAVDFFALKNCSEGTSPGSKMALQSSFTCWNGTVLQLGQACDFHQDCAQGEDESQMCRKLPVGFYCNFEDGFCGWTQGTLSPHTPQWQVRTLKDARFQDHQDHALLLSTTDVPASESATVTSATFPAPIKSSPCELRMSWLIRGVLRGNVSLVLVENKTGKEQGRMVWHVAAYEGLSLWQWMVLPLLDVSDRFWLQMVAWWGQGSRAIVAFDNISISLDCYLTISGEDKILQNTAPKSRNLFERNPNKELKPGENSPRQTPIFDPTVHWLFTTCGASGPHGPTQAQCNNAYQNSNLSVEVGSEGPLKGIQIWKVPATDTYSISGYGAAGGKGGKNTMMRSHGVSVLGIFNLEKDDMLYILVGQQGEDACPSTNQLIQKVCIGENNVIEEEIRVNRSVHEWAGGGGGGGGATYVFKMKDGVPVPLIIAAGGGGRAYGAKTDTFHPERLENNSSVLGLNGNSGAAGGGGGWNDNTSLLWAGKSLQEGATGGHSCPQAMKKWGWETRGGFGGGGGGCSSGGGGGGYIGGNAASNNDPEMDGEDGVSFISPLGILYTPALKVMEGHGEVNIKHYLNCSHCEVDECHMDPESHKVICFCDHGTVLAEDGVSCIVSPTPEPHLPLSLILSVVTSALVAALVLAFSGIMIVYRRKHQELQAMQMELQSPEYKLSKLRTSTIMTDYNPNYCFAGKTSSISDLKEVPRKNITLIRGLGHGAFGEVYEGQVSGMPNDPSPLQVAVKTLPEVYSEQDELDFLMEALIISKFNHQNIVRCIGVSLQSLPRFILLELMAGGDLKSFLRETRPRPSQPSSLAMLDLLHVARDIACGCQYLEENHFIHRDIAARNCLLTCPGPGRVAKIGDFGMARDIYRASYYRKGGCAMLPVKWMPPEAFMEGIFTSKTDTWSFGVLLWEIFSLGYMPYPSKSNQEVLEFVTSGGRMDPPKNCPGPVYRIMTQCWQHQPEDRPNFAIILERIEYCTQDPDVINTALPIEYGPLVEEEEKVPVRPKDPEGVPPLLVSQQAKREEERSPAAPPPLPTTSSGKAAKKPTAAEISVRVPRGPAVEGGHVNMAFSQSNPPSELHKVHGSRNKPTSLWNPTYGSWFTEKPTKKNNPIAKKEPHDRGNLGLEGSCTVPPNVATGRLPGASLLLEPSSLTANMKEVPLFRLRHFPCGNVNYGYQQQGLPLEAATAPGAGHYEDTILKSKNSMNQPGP

## CC(=O)c1c(NS(C)(=O)=O)c2cc(-c3ccc(Cl)cc3)c(-c3ccc(Cl)cc3Cl)nc2n(C)c1=O [MRL-CB1-NC]
[1]
  residual activity: 94%
[2]
  residual activity: 95%
[3]
  residual activity: 100%
[4]
  residual activity: 100%
[5]
  residual activity: 100%
[6]
  residual activity: 82%
[7]
  residual activity: 91%
[8]
  residual activity: 100%
[9]
  residual activity: 100%
[10]
  residual activity: 93%
[11]
  residual activity: 100%
[12]
  residual activity: 98%
[13]
  residual activity: 100%
[14]
  residual activity: 100%
[15]
  residual activity: 96%
[16]
  residual activity: 88%
[17]
  residual activity: 98%
[18]
  residual activity: 73%
[19]
  residual activity: 70%
[20]
  residual activity: 100%
[21]
  residual activity: 95%
[22]
  residual activity: 100%
[23]
  residual activity: 100%
[24]
  residual activity: 99%
[25]
  residual activity: 81%
[26]
  residual activity: 100%
[27]
  residual activity: 77%
[28]
  residual activity: 100%
[29]
  residual activity: 100%
[30]
  residual activity: 92%
[31]
  residual activity: 95%
[32]
  residual activity: 100%
[33]
  residual activity: 92%
[34]
  residual activity: 91%
[35]
  residual activity: 88%
[36]
  residual activity: 100%
[37]
  residual activity: 100%
[38]
  residual activity: 61%
[39]
  residual activity: 90%
[40]
  residual activity: 95%
[41]
  residual activity: 72%
[42]
  residual activity: 99%
[43]
  inhibition: 14.2%
[44]
  inhibition: 13.8%
[45]
  inhibition: 36.9%

## CC(=O)Nc1c(C(C)=O)c(=O)n(C)c2nc(-c3ccc(Cl)cc3Cl)c(-c3ccc(Cl)cc3)cc12 [NAPHTHYRIDINONE]
[1]
  residual activity: 96%
[2]
  residual activity: 100%
[3]
  residual activity: 100%
[4]
  residual activity: 100%
[5]
  residual activity: 100%
[6]
  residual activity: 100%
[7]
  residual activity: 100%
[8]
  residual activity: 100%
[9]
  residual activity: 100%
[10]
  residual activity: 100%
[11]
  residual activity: 100%
[12]
  residual activity: 100%
[13]
  residual activity: 100%
[14]
  residual activity: 100%
[15]
  residual activity: 99%
[16]
  residual activity: 97%
[17]
  residual activity: 100%
[18]
  residual activity: 80%
[19]
  residual activity: 100%
[20]
  residual activity: 100%
[21]
  residual activity: 89%
[22]
  residual activity: 100%
[23]
  residual activity: 100%
[24]
  residual activity: 100%
[25]
  residual activity: 100%
[26]
  residual activity: 100%
[27]
  residual activity: 93%
[28]
  residual activity: 100%
[29]
  residual activity: 100%
[30]
  residual activity: 100%
[31]
  residual activity: 100%
[32]
  residual activity: 100%
[33]
  residual activity: 100%
[34]
  residual activity: 100%
[35]
  residual activity: 100%
[36]
  residual activity: 100%
[37]
  residual activity: 100%
[38]
  residual activity: 93%
[39]
  residual activity: 100%
[40]
  residual activity: 100%
[41]
  residual activity: 63%
[42]
  residual activity: 100%
[43]
  inhibition: 2.02%
[44]
  inhibition: 6.71%
[45]
  inhibition: 82.7%
